Our source for the IC50 values is US11613545B2, “Macrocyclic compound serving as Wee1 inhibitor and applications thereof” (WUXI BIOCITY BIOPHARMACEUTICS CO., LTD., priority 2017, dated 2023).

SMILES strings stand for the structures.

T1 sequence (P30291 whole entry): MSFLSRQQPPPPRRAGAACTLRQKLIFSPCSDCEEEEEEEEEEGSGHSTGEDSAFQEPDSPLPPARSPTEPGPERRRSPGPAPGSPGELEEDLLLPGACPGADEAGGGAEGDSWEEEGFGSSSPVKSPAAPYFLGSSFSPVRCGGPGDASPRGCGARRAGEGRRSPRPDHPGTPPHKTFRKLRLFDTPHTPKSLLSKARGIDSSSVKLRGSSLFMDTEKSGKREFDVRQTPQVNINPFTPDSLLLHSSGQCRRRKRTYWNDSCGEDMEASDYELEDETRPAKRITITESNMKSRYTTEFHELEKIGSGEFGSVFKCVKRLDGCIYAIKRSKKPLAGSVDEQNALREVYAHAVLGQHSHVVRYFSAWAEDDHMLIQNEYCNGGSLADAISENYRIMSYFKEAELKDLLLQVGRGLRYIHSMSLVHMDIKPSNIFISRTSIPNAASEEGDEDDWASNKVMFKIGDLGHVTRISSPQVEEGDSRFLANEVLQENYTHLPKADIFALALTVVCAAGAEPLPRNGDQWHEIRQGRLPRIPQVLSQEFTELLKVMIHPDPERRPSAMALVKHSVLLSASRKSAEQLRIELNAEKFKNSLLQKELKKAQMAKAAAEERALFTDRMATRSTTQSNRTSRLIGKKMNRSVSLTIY

This experiment has as its target T1, Wee1 (Homo sapiens, UniProt P30291).
T1 construct: purchased Eurofins
Description: In vitro enzymatic inhibitory activity, Wee1 kinase (Eurofins, [γ-33P]-ATP filter assay). The class given is biochemical. Particulars: 10 μM [γ-33P]-ATP, 40 min at room temperature. The method, then: The experimental tests were conducted at Eurofins, and the results were provided by the company.
After adding the mixed solution of Mg^2+ and ATP, the reaction started and the reaction solution was incubated at room temperature for 40 min. 3% phosphate buffer was added to stop the reaction. 10 μL of the reaction solution was filtered on a continuous filter P30, washed three times with 75 mM phosphate buffer, once with methanol, and 5 minutes each time. After drying, the value was read by scintillation counting method.
As to `COc1cccc(Nc2ncc3c(=O)n4n(c3n2)-c2cccc(n2)[C@](C)(O)CC/C=C\C4)c1` [Compound 16], the midpoint of inhibition, the IC50, lay at 60 nM. In turn, `CN1CCc2ccc(Nc3ncc4c(=O)n5n(c4n3)-c3cccc(n3)[C@@](C)(O)CC/C=C\C5)cc2C1` [Compound 27] returned an IC50 of 37 nM. Regarding `C[C@]1(O)CC/C=C\Cn2c(=O)c3cnc(Nc4cccc(F)c4)nc3n2-c2cccc1n2` [Compound 29], the midpoint of inhibition, the IC50, lay at 444 nM. The result for `C[C@@]1(O)CC/C=C\Cn2c(=O)c3cnc(Nc4ccc(N5CCOCC5)cc4)nc3n2-c2cccc1n2` [Compound 32] reads 37 nM. Consider `CN1CC2CN(c3ccc(Nc4ncc5c(=O)n6n(c5n4)-c4cccc(n4)[C@](C)(O)CC/C=C\C6)cc3)CC2C1` (some centres unmarked) [Compound 24], for which the IC50 was 57 nM. In turn, `C[C@@]1(O)CC/C=C\Cn2c(=O)c3cnc(Nc4ccc(OC5CC5)cc4)nc3n2-c2cccc1n2` [Compound 40] yielded an IC50 of 35 nM.

In turn, `CN(C)CCOc1cccc(Nc2ncc3c(=O)n4n(c3n2)-c2cccc(n2)[C@@](C)(O)CC/C=C\C4)c1` [Compound 42] returned an IC50 of 221 nM. The result for `CC1(O)CC/C=C\Cn2c(=O)c3cnc(Nc4ccc(N5CCC(F)(F)CC5)cc4)nc3n2-c2cccc1n2` (centres unmarked) [Compound 3] reads 42 nM.

The molecule `CN(C)C1CCN(c2ccc(Nc3ncc4c(=O)n5n(c4n3)-c3cccc(n3)[C@](C)(O)CC/C=C\C5)cc2)CC1` [Compound 38] showed an IC50 of 48 nM. `CN(C)CCOc1cccc(Nc2ncc3c(=O)n4n(c3n2)-c2cccc(n2)[C@](C)(O)CC/C=C\C4)c1` [Compound 36] yielded an IC50 of 35 nM. `CN1CCN(c2ccc(Nc3ncc4c(=O)n5n(c4n3)-c3cccc(n3)[C@](C)(O)CC/C=C\C5)cc2CO)CC1` [Compound 22] showed an IC50 of 16 nM.

In the case of `CN(C)C1CCN(c2ccc(Nc3ncc4c(=O)n5n(c4n3)-c3cccc(n3)C(C)(O)CC/C=C\C5)cc2)CC1` (centres unmarked) [Compound 9], the IC50 stood at 41 nM.

Molecule `C[C@]1(O)CC/C=C\Cn2c(=O)c3cnc(Nc4ccc(N5CCOCC5)cc4)nc3n2-c2cccc1n2` [Compound 33] showed an IC50 of 151 nM.

Regarding `CN1CCCN(c2ccc(Nc3ncc4c(=O)n5n(c4n3)-c3cccc(n3)[C@](C)(O)CC/C=C\C5)cc2)CC1` [Compound 37], it took 31 nM to reach half-maximal inhibition (IC50). The result for `CN1CCN(c2cccc(Nc3ncc4c(=O)n5n(c4n3)-c3cccc(n3)[C@@](C)(O)CC/C=C\C5)c2)CC1` [Compound 35] reads 276 nM. Turning to `C[C@@]1(O)CC/C=C\Cn2c(=O)c3cnc(Nc4ccc(F)cc4)nc3n2-c2cccc1n2` [Compound 30], the IC50 is 67 nM. In the case of `CN1CCC(c2ccc(Nc3ncc4c(=O)n5n(c4n3)-c3cccc(n3)[C@@](C)(O)CC/C=C\C5)cc2)CC1` [Compound 21], the concentration for half-maximal inhibition (IC50) was 280 nM. `CN1CC2CN(c3ccc(Nc4ncc5c(=O)n6n(c5n4)-c4cccc(n4)[C@@](C)(O)CC/C=C\C6)cc3)CC2C1` (some centres unmarked) [Compound 25]: the IC50 is 78 nM. In turn, `CN1CCCN(c2ccc(Nc3ncc4c(=O)n5n(c4n3)-c3cccc(n3)C(C)(O)CC/C=C\C5)cc2)CC1` (centres unmarked) [Compound 10] gave an IC50 of 49 nM. In turn, `CN1CCN(c2cccc(Nc3ncc4c(=O)n5n(c4n3)-c3cccc(n3)[C@](C)(O)CC/C=C\C5)c2)CC1` [Compound 34] had an IC50 of 116 nM.

In turn, `CN(C)CCOc1ccc(Nc2ncc3c(=O)n4n(c3n2)-c2cccc(n2)[C@](C)(O)CC/C=C\C4)cc1` [Compound 18] registered an IC50 of 29 nM. In turn, `C[C@@]1(O)CC/C=C\Cn2c(=O)c3cnc(Nc4ccccc4)nc3n2-c2cccc1n2` [Compound 12] registered an IC50 of 59 nM. Take `CN1CCC2(CC1)CCN(c1ccc(Nc3ncc4c(=O)n5n(c4n3)-c3cccc(n3)C(C)(O)CC/C=C\C5)cc1)CC2` (centres unmarked) [Compound 7]: half-maximal inhibition (IC50) was put at 54 nM. The molecule `CC1(O)CC/C=C\Cn2c(=O)c3cnc(Nc4ccc(N5CCCNCC5)cc4)nc3n2-c2cccc1n2` (centres unmarked) [Compound 11] yielded an IC50 of 102 nM. Consider `CN1CCC(c2ccc(Nc3ncc4c(=O)n5n(c4n3)-c3cccc(n3)[C@](C)(O)CC/C=C\C5)cc2)CC1` [Compound 20], for which the IC50 was found to be 173 nM. To `C[C@@]1(O)CC/C=C\Cn2c(=O)c3cnc(Nc4ccc(Cl)cc4)nc3n2-c2cccc1n2` [Compound 39] belongs 54 nM. Regarding `COc1cccc(Nc2ncc3c(=O)n4n(c3n2)-c2cccc(n2)[C@@](C)(O)CC/C=C\C4)c1` [Compound 17], the IC50 was found to be 366 nM. For `C[C@@]1(O)CC/C=C\Cn2c(=O)c3cnc(Nc4ccc(N5CCC(F)(F)CC5)cc4)nc3n2-c2cccc1n2` [Compound 41], the IC50 worked out at 16 nM. To `C[C@]1(O)CC/C=C\Cn2c(=O)c3cnc(Nc4ccccc4)nc3n2-c2cccc1n2` [Compound 13] belongs 265 nM. `C[C@]1(O)CC/C=C\Cn2c(=O)c3cnc(Nc4ccc(F)cc4)nc3n2-c2cccc1n2` [Compound 31] had an IC50 of 323 nM. To `C[C@@]1(O)CC/C=C\Cn2c(=O)c3cnc(Nc4cccc(F)c4)nc3n2-c2cccc1n2` [Compound 28] belongs 79 nM; to `CN1CCc2ccc(Nc3ncc4c(=O)n5n(c4n3)-c3cccc(n3)[C@](C)(O)CC/C=C\C5)cc2C1` [Compound 26], 30 nM; to `COCc1cc(Nc2ncc3c(=O)n4n(c3n2)-c2cccc(n2)[C@](C)(O)CC/C=C\C4)ccc1N1CCN(C)CC1` [Compound 23], 29 nM.

For the molecule `CC1(O)CC/C=C\Cn2c(=O)c3cnc(Nc4ccc(N5CCNCC5)cc4)nc3n2-c2cccc1n2` (centres unmarked) [Compound 6], the IC50 came to 46 nM. The molecule `CN(C)CCOc1ccc(Nc2ncc3c(=O)n4n(c3n2)-c2cccc(n2)[C@@](C)(O)CC/C=C\C4)cc1` [Compound 19] had an IC50 of 72 nM.

Usually IC50 stands for the point on the concentration scale where inhibition reaches its midpoint. Low values mean greater potency, high ones weaker potency.
